Results from patent US9260388B2, “Process for preparing alkyl pyroglutamic acids” (DOW GLOBAL TECHNOLOGIES LLC, priority 2011, dated 2016).

Tests used:
Assay type in all cases: physicochemical
[1] = Critical micelle concentration (Kibron CMC) and surface tension, Kibron Delta-8 multichannel microtensiometer; conditions: for Kibron CMC: sodium salt in water, twelve two-fold dilutions starting at 1 wt %; for Surface Tension (1%): sodium salt, 1 wt % in water
Description: The critical micelle concentration (Kibron CMC) and surface tension of the N-alkyl pyroglutamic acids (as Na^+ salts) and related commercial surfactants were evaluated. For each sample, a total of twelve dilutions starting at 1 wt % were prepared, reducing the concentration in each dilution by half by taking an aliquot of the previous dilution and adding the same amount of water. The surface tension of all 12 dilutions was measured using a Kibron Delta-8 multichannel microtensiometer. Sample volume for each analysis was 50 μL.

[2] = Shake foam test (foam height); conditions: sodium salt, 0.1 wt % solution, shaken 20 times, t=0, average of three replicates
Description: Foaming profile of the N-alkyl pyroglutamates are evaluated using a shake foam test, and evaluated against sodium laureth sulfate. For each sample, a 0.1 wt % solution is prepared by diluting 50 mg active to 50 g in water. The 0.1 wt % solution is added to a 100 mL graduated cylinder and capped. The cylinder is shaken by hand 20 times, each time the cylinder is inverted and brought back to an upright position. Foam height (in mL) is defined as the highest point of the top layer of the foam in the graduated cylinder. If the top of the foam was not flat, the midpoint of the top of the foam was reported. Foam height is read immediately after the solution settled (t=0). Three replicates are done for each sample, and the reported foam height (in mL) is the average reading of the three replicates.

[3] = Water solubility of sodium salts; conditions: for pH: pH of the sodium salt solution after neutralization
Description: Selected N-alkyl pyroglutamic acids are converted into their sodium salt by neutralizing them in water with sodium hydroxide. In general, a known amount of sample is placed in a vial and a known amount of water is added. Sample is neutralized with 25 wt % sodium hydroxide in water until pH is >7. Mild heating (50° C.) is applied when necessary to aid dissolution. The final mass is recorded. The weight percent of the solution is determined by mass of the sodium salt over the total mass of solution, and multiplying by 100. The pH of the solution is recorded after neutralization. No effort was done to prepare a saturated solution.

| Kibron CMC [1] [ppm] | Surface Tension (1%) [1] [Dynes/cm] | Shake Foam t = 0 [2] [mL] | pH [3] | Solubility ([3]; sodium salt in water, neutralized with NaOH, no saturated solution prepared) [wt %] | Compound |
| --- | --- | --- | --- | --- | --- |
| 625 | 38 | 36 | 10.0 | – | CCC(CCCC(C)CCCC(C)C)CCN1C(=O)CCC1C(=O)O (stereo not shown) [Example 1] |
| >10000 | 34 | 11 | 7.3 | – | CCCCCC(CCC)CN1C(=O)CCC1C(=O)O (stereo not shown) [Example 2] |
| 78 | 29 | 29 | 7.1 | 15.4 | CCCCCCCCCCC(CCCCCCCC)CN1C(=O)CCC1C(=O)O (stereo not shown) [Example 4] |
